# Measurements reported in patent US9943529B2, “Methods for reducing cellular proliferation and treating certain diseases” (BRIGHAM YOUNG UNIVERSITY, priority 2013, dated 2018).
# Key:
# [1] = test system: OVCAR-5; settings: 48 hours, five 10-fold dilutions starting from 100 μM
# [2] = test system: BT-549; settings: 48 hours, five 10-fold dilutions starting from 100 μM
# [3] = test system: BT-549; experiment: cells; settings: Homo sapiens, BT-549, 48 h
# [4] = test system: NCI-ADR-RES; experiment: cells; settings: Homo sapiens, 48 h
# [5] = test system: A549/ATCC; settings: 48 hours, five 10-fold dilutions starting from 100 μM
# [6] = test system: OVCAR-3; settings: 48 hours, five 10-fold dilutions starting from 100 μM
# [7] = test system: SK-MEL-28; experiment: cells; settings: Homo sapiens, SK-MEL-28, 48 h
# [8] = test system: MCF7; experiment: cells; settings: Homo sapiens, MCF7, 48 h
# [9] = test system: NCI-H23; experiment: cells; settings: Homo sapiens, NCI-H23, 48 h
# [10] = test system: UACC-62; settings: 48 hours, five 10-fold dilutions starting from 100 μM
# [11] = test system: MDA-MB-435; settings: 48 hours, five 10-fold dilutions starting from 100 μM
# [12] = test system: HCC-2998; settings: 48 hours, five 10-fold dilutions starting from 100 μM
# [13] = test system: SN12C; experiment: cells; settings: Homo sapiens, 48 h
# [14] = test system: IGROV1; settings: 48 hours, five 10-fold dilutions starting from 100 μM
# [15] = test system: SK-OV-3; experiment: cells; settings: Homo sapiens, SK-OV-3, 48 h
# [16] = test system: SNB-19; settings: 48 hours, five 10-fold dilutions starting from 100 μM
# [17] = test system: TK-10; settings: 48 hours, five 10-fold dilutions starting from 100 μM
# [18] = test system: UACC-62; experiment: cells; settings: Homo sapiens, UACC-62, 48 h
# [19] = test system: SK-MEL-2; experiment: cells; settings: Homo sapiens, SK-MEL-2, 48 h
# [20] = test system: MOLT-4; experiment: NCI screen antiproliferative activity, sulforhodamine B, Leukemia panel; format: cell-based, human; settings: 48 hours, five 10-fold dilutions starting from 100 μM
# [21] = test system: OVCAR-8; settings: 48 hours, five 10-fold dilutions starting from 100 μM
# [22] = test system: ACHN; settings: 48 hours, five 10-fold dilutions starting from 100 μM
# [23] = test system: RPMI-8226; experiment: NCI screen antiproliferative activity, sulforhodamine B, Leukemia panel; format: cell-based, human; settings: 48 hours, five 10-fold dilutions starting from 100 μM
# [24] = test system: NCI-H522; experiment: cells; settings: Homo sapiens, NCI-H522, 48 h
# [25] = test system: SNB-19; experiment: cells; settings: Homo sapiens, SNB-19, 48 h
# [26] = test system: K-562; experiment: NCI screen antiproliferative activity, sulforhodamine B, Leukemia panel; format: cell-based, human; settings: five 10-fold dilutions starting from 100 μM
# [27] = test system: EKVX; experiment: cells; settings: Homo sapiens, 48 h
# [28] = test system: M14; settings: 48 hours, five 10-fold dilutions starting from 100 μM
# [29] = test system: ACHN; experiment: cells; settings: Homo sapiens, 48 h
# [30] = test system: HS 578T; experiment: NCI screen antiproliferative activity, sulforhodamine B, Breast Cancer panel; format: cell-based, human; settings: 48 hours, five 10-fold dilutions starting from 100 μM
# [31] = test system: OVCAR-5; experiment: cells; settings: Homo sapiens, OVCAR-5, 48 h
# [32] = test system: MDA-MB-231/ATCC; settings: 48 hours, five 10-fold dilutions starting from 100 μM
# [33] = test system: SNB-75; settings: 48 hours, five 10-fold dilutions starting from 100 μM
# [34] = test system: HT29; experiment: cells; settings: Homo sapiens, HT-29, 48 h
# [35] = test system: NCI-H460; settings: 48 hours, five 10-fold dilutions starting from 100 μM
# [36] = test system: SF-268; experiment: cells; settings: Homo sapiens, SF-268, 48 h
# [37] = test system: HCT-15; settings: 48 hours, five 10-fold dilutions starting from 100 μM
# [38] = test system: UACC-257; experiment: cells; settings: Homo sapiens, UACC-257, 48 h
# [39] = test system: PC-3; experiment: cells; settings: Homo sapiens, PC-3, 48 h
# [40] = test system: HOP-62; experiment: cells; settings: Homo sapiens, HOP-62, 48 h
# [41] = test system: SN12C; settings: 48 hours, five 10-fold dilutions starting from 100 μM
# [42] = test system: HCT-116; settings: 48 hours, five 10-fold dilutions starting from 100 μM
# [43] = test system: CAKI-1; experiment: cells; settings: Homo sapiens, CAKI-1, 48 h
# [44] = test system: SK-MEL-5; experiment: NCI screen antiproliferative activity, sulforhodamine B, Melanoma panel; format: cell-based, human; settings: 48 hours, five 10-fold dilutions starting from 100 μM
smiles,measurement,setting,value
CCCCCCCCNCCC[C@@H](C)[C@H]1CC[C@H]2[C@@H]3[C@H](OCCCN)C[C@@H]4C[C@H](OCCCN)CC[C@]4(C)[C@H]3C[C@H](OCCCN)[C@]12C [CSA-13],TGI,[1],9.44 µM
same,TGI,[2],3.28 µM
same,GI50,[3],1.07 µM
same,CC50,[3]; read-out: LC50,> 100 µM
same,GI50,[4],1.83 µM
same,CC50,[4]; read-out: LC50,36.5 µM
same,TGI,[5],9.33 µM
same,TGI,[6],14.8 µM
same,GI50,[7],0.291 µM
same,CC50,[7]; read-out: LC50,5.46 µM
same,GI50,[8],1.63 µM
same,CC50,[8]; read-out: LC50,5.85 µM
same,GI50,[9],1.24 µM
same,CC50,[9]; read-out: LC50,7.87 µM
same,TGI,[10],2.29 µM
same,TGI,[11],1.46 µM
same,TGI,[12],3.98 µM
same,GI50,[13],0.571 µM
same,CC50,[13]; read-out: LC50,27 µM
same,TGI,[14],3.54 µM
same,GI50,[15],3.45 µM
same,CC50,[15]; read-out: LC50,93.1 µM
same,TGI,[16],5.05 µM
same,TGI,[17],4.70 µM
same,GI50,[18],0.482 µM
same,CC50,[18]; read-out: LC50,9.43 µM
same,GI50,[19],4.51 µM
same,CC50,[19]; read-out: LC50,> 100 µM
same,TGI,[20],2.93 µM
same,GI50,[20]; Homo sapiens,1.25 µM
same,TGI,[21],4.01 µM
same,TGI,[22],3.68 µM
same,TGI,[23],0.911 µM
same,GI50,[23]; Homo sapiens,0.266 µM
same,GI50,[24],2.59 µM
same,CC50,[24]; read-out: LC50,> 100 µM
same,GI50,[25],1.49 µM
same,CC50,[25]; read-out: LC50,89.3 µM
same,TGI,[26]; 48 hours,2.47 µM
same,GI50,"[26]; Homo sapiens, K562, 48 hours",1.04 µM
same,GI50,[27],1.32 µM
same,CC50,[27]; read-out: LC50,8.62 µM
same,TGI,[28],3.52 µM
same,GI50,[29],1.48 µM
same,CC50,[29]; read-out: LC50,9.17 µM
same,TGI,[30],2.35 µM
same,GI50,[30]; Homo sapiens,0.854 µM
same,GI50,[31],1.55 µM
same,CC50,[31]; read-out: LC50,58.4 µM
same,TGI,[32],4.08 µM
same,TGI,[33],5.93 µM
same,GI50,[34],1.11 µM
same,CC50,[34]; read-out: LC50,34 µM
same,TGI,[35],3.92 µM
same,GI50,[36],1.5 µM
same,CC50,[36]; read-out: LC50,9.14 µM
same,TGI,[37],14.8 µM
same,GI50,[38],2.71 µM
same,CC50,[38]; read-out: LC50,97.9 µM
same,GI50,[39],3.74 µM
same,CC50,[39]; read-out: LC50,> 100 µM
same,GI50,[40],0.806 µM
same,CC50,[40]; read-out: LC50,9.74 µM
same,TGI,[41],3.55 µM
same,TGI,[42],2.61 µM
same,GI50,[43],2.05 µM
same,CC50,[43]; read-out: LC50,68 µM
same,TGI,[44],1.92 µM
same,GI50,[44]; Homo sapiens,0.504 µM
